Experimental data: patent US20150175655A1 (priority 2012, published 2015)
Like-named read-outs stand apart in the source and are kept apart here.

Legend:
[1] = rcm bond, Zhan 1B, DCE
[2] = target: T1, NS3 genotype 1b protease (Hepatitis C virus genotype 1b, UniProt Q9WMX2, E1202G); assay: Ki determination, NS3 protease genotype 1b (fluorogenic depsipeptide substrate); type: biochemical
T1 construct: Purified NS3 protease domain (amino acids 1-181) of the genotype 1b and 3a virus were generated as above; K3 hexahistidine tag (N); rTEV protease cleavage site (N); made in house; host or cells: E. coli BL21AI, pET28 vector p28-N6H-Tev-NS3(181)1b
Description: The coding sequence of the genotype 1b (con-1 strain) HCV NS3 protease domain was PCR amplified from a plasmid encoding the I389luc-ubi-neo/NS3-3′/ET replicon (Reblikon, Mainz, Germany). The 5′-PCR primer was designed to encode an N-terminal K3 hexahistidine tag and to insert an in-frame recombinant Tobacco Etch virus (rTEV) protease cleavage site into the NS3 coding sequence. The resulting DNA fragment was cloned into the pET28 protein expression vector (Invitrogen, Carlsbad, Calif.) yielding the p28-N6H-Tev-NS3(181)1b.
BL21AI bacteria (Invitrogen, Carlsbad, Calif.) were transformed with genotype 1b or 3 NS3 expression vectors and used to inoculate a 20 L fermentation vessel (Sartorius BBI System Inc., Bethlehem, Pa.), containing 18 L of fresh 2YT medium supplemented with 50 μg/mL kanamycin. When cell densities reached an OD600 of 1, the temperature of the cultures was reduced from 37° C. to 28° C. and induction was immediately initiated by the addition of 30 μM ZnSO4, 14 mM L-arabinose and 1 mM Isopropyl β-D-thiogalactoside (IPTG) final concentrations. Cells were harvested by centrifugation four hours post-induction and were stored as frozen pellets at −80° C. prior to NS3 protein purification.
Cell pellets were thawed and resuspended at 10 mL/g cells in lysis buffer containing 50 mM tris pH 7.6, 300 mM NaCl, 0.1% 3-[(3-cholamidopropyl)dimethylammonio]-1-propanesulfonate (CHAPS), 5% glycerol, and 2 mM β-mercaptoethanol. Cell suspensions were then sonicated, filtered through cheesecloth, and passed three times through a microfluidizer at 18,000 pounds/in^2. The resulting lysates were centrifuged at 15500 rpm for 45 minutes and supernatants were loaded onto a HisTrap HP column (GE Lifesciences) pre-equilibrated with five volumes of Ni buffer A (50 mM tris pH 7.6, 300 mM NaCl, 0.1% CHAPS, 5% glycerol, 2 mM β-mercaptoethanol, 50 mM imidazole-HCl). Proteins were eluted with a 0-100% gradient of Ni buffer A plus 500 mM imidazole-HCl and fractions were collected and pooled. The HisTrap pool was diluted 1:10 with SP-A buffer (50 mM tris pH 7.0, 10% glycerol, 2 mM dithiothreitol (DTT)) and loaded onto a HiTrap SP-HP column (GE Lifesciences) equilibrated with SP-A buffer. NS3 protease was eluted with a 0-100% SP-B buffer (SP-A buffer plus 1 M NaCl) gradient. Concentrated pools of NS3-containing SP fractions were aliquoted, snap frozen in liquid nitrogen and stored at −80° C.
Purified NS3 protease domain (amino acids 1-181) of the genotype 1b and 3a virus were generated as above.
Reactions were run at room temperature in buffer consisting of 50 mM HEPES, 40% glycerol, 0.05% Triton X-100, 10 mM DTT, and 10% DMSO. The final assay solutions contained 50 pM NS3 genotype 1b protease or 200 pM genotype 3a protease, 20 μM NS4A peptide, and 4 μM substrate (genotype 1 b) or 2 μM substrate (genotype 3a). Inhibitor concentrations varied from 100 nM to 5 pM in 3-fold dilutions, and no-inhibitor controls were included.
Compound dilutions were made in DMSO at 20× final concentration. Reaction mixtures were prepared in 96-well assay plates. A solution of enzyme and NS4A peptide in assay buffer (25 μL volume with both reagents at 4× final concentration) was mixed with 45 μL assay buffer and 5 μL of either inhibitor or DMSO, and pre-incubated at room temperature for 1 hour. The reaction was started by addition of 25 μL substrate solution at 4× final concentration. Plates were mixed vigorously for 5-10 seconds and reactions were allowed to proceed for 90 minutes. fluorescence was measured every 30 s between 90 and 120 minutes reaction time using a Tecan InfiniTe M1000 or PerkinElmer Envision multimode plate reader with an excitation wavelength of 340 nm and an emission wavelength of 490 nm.
To determine the K, rates were plotted as a function of inhibitor concentration, and the data were fit with equation 1 (Morrison, J. F., Biochimica et Biophysica Acta 1969, 185, 269-286) to calculate Ki^app using GraphPad Prism 5.

[3] = target: T2, NS3 genotype 3a protease (UniProt Q81258); assay: Ki determination, NS3 protease genotype 3a (fluorogenic depsipeptide substrate); type: biochemical, hepatitis C virus; details: 200 pM enzyme, 20 μM NS4A peptide, 2 μM substrate, read-out: Ki 3A
T2 construct: Purified NS3 protease domain (amino acids 1-181) of the genotype 1b and 3a virus were generated as above; fused on or other part: N-terminal hexahistidine tag and rTEV protease cleavage site (vector p28-N6H-Tev-NS3(181)3)
T2 sequence (Q81258 1033-1663): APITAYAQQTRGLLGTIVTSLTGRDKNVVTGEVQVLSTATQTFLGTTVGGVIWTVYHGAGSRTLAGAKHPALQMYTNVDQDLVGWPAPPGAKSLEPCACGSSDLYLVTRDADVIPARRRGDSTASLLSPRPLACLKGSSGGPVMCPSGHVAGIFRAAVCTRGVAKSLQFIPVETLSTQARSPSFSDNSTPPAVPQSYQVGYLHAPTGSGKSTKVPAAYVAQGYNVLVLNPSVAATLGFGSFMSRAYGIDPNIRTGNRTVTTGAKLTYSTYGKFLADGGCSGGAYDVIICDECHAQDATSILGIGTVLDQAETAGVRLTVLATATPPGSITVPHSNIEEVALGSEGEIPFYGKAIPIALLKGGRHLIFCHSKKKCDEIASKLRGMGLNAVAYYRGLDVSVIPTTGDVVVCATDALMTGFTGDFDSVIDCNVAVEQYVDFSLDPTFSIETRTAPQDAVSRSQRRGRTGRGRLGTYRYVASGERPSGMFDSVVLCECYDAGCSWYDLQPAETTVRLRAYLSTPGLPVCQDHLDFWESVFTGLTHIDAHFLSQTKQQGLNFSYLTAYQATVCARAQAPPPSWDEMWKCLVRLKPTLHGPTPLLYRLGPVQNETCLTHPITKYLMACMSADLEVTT
How it was run: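 Refolded His-tagged NS3 protease domain (aa 1-181, genotype 3a) at 200 pM with 20 μM NS4A peptide was pre-incubated 1 h at RT with inhibitor (100 nM–5 pM, 3-fold), then 2 μM FRET depsipeptide substrate was added in HEPES/40% glycerol/10% DMSO buffer. Steady-state rates over 90-120 min (ex 340/em 490 nm) versus inhibitor concentration gave Ki.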

[4] = system: genotype 1a (H77) wild-type transient HCV replicon in Huh-7-derived cells; assay: Transient-transfected HCV replicon EC50, genotype 1a wild type; type: cell-based; details: Hepatitis C virus; transient-transfected replicon genotype 1a wild type, 72 h; read-out: EC50 1A WT
[5] = system: genotype 1b (Con1) wild-type transient HCV replicon in Huh-7-derived cells; assay: Transient-transfected HCV replicon EC50, genotype 1b wild type; type: cell-based; details: Hepatitis C virus; transient-transfected replicon genotype 1b wild type, 72 h; read-out: EC50 1B WT
[6] = system: genotype 1b transient HCV replicon, NS3/4a protease inhibitor resistant variant D168A, in Huh-7-derived cells; assay: Transient-transfected HCV replicon EC50, genotype 1b D168A; type: cell-based; details: Hepatitis C virus, 72 h, read-out: EC50 1B D168A
[7] = system: genotype 1a transient HCV replicon, NS3/4a protease inhibitor resistant variant R155K, in Huh-7-derived cells; assay: Transient-transfected HCV replicon EC50, genotype 1a R155K; type: cell-based; details: Hepatitis C virus, 72 h, read-out: EC50 1A R155K

`CC[C@@H]1[C@@H]2CN(C(=O)[C@H](C(C)(C)C)NC(=O)OC3(C(F)(F)F)CCCC3CCCC=Cc3nc4ccc(OC)cc4nc3O2)[C@@H]1C(=O)OC(C)(C)C` (stereo partly shown) gave a ring closure, yield of all isomers ([1]; from C=CCCCC1CCCC1(OC(=O)N[C@H](C(=O)N1C[C@H](Oc2nc3cc(OC)ccc3nc2C=C)[C@@H](CC)[C@H]1C(=O)OC(C)(C)C)C(C)(C)C)C(F)(F)F, 5.0 mM, 100.0 °C, 0.5 h) of 84.7%.

Work on `CC[C@@H]1[C@@H]2CN(C(=O)[C@H](C(C)(C)C)NC(=O)O[C@@H]3C[C@H]3CC/C=C/C(F)(F)c3nc4ccc(C#N)cc4nc3O2)[C@@H]1C(=O)N[C@]1(C(=O)NS(=O)(=O)C2(C)CC2)C[C@H]1C(F)F` [Example 84, (1aR,5S,8S,9S,10R,19E,22aR)-5-tert-butyl-14-cyano-N-[(1R,2R)-2-(difluoromethyl)-1-{[(1-methylcyclopropyl)sulfonyl]carbamoyl}cyclopropyl]-9-ethyl-18,18-difluoro-3,6-dioxo-1,1a,3,4,5,6,9,10,18,21,22,22a-dodecahydro-8H-7,10-methanocyclopropa[18,19][1,10,3,6]dioxadiazacyclononadecino[11,12-b]quinoxaline-8-carboxamide] yielded a Ki [2] of 0.04 nM and a Ki [3] of 0.08 nM.

Molecule `CCC[C@@H]1[C@@H]2CN(C(=O)[C@H](C(C)(C)C)NC(=O)O[C@@H]3C[C@H]3CCCC=Cc3nc4ccc(OC)cc4nc3O2)[C@@H]1C(=O)OC(C)(C)C` has a ring closure, yield of all isomers ([1]; from C=CCCC[C@@H]1C[C@H]1OC(=O)N[C@H](C(=O)N1C[C@H](Oc2nc3cc(OC)ccc3nc2C=C)[C@@H](CCC)[C@H]1C(=O)OC(C)(C)C)C(C)(C)C, 5.0 mM, 100.0 °C, 1.0 h) of 80.7%.

`CC[C@@H]1[C@@H]2CN(C(=O)[C@H](C(C)(C)C)NC(=O)O[C@]3(C)CCC[C@H]3CCCC=Cc3nc4ccc(OC)cc4nc3O2)[C@@H]1C(=O)OC` gave a ring closure, yield of all isomers ([1]; from C=CCCC[C@@H]1CCC[C@@]1(C)OC(=O)N[C@H](C(=O)N1C[C@H](Oc2nc3cc(OC)ccc3nc2C=C)[C@@H](CC)[C@H]1C(=O)OC)C(C)(C)C, 19.9 mM, 80.0 °C, […]) of 77.2%.

Work on `COc1ccc2nc3c(nc2c1)O[C@H]1CN(C(=O)[C@H](C2(C)CCCC2)NC(=O)O[C@@H]2C[C@H]2CCCC=C3)[C@H](C(=O)OC(C)(C)C)[C@@H]1C` yielded a ring closure, yield of all isomers ([1]; from C=CCCC[C@@H]1C[C@H]1OC(=O)N[C@H](C(=O)N1C[C@H](Oc2nc3cc(OC)ccc3nc2C=C)[C@@H](C)[C@H]1C(=O)OC(C)(C)C)C1(C)CCCC1, 5.03 mM, 83.0 °C, […]) of 78%.

`COc1ccc2nc3c(nc2c1)O[C@H]1CN(C(=O)[C@H](C(C)(C)C)NC(=O)O[C@@H]2CCC[C@H]2CCCC=C3)[C@H](C(=O)OC(C)(C)C)[C@@H]1C` gave a ring closure, yield of all isomers ([1]; from C=CCCC[C@@H]1CCC[C@H]1OC(=O)N[C@H](C(=O)N1C[C@H](Oc2nc3cc(OC)ccc3nc2C=C)[C@@H](C)[C@H]1C(=O)OC(C)(C)C)C(C)(C)C, 4.97 mM, 83.0 °C, […]) of 78.5%.

`CC[C@@H]1[C@@H]2CN(C(=O)[C@H](C(C)(C)C)NC(=O)O[C@@H]3[C@H]4CC[C@H](C4)[C@H]3CCCC=Cc3nc4ccc(OC)cc4nc3O2)[C@@H]1C(=O)OC(C)(C)C` gave a ring closure, yield of all isomers ([1]; from C=CCCCC1C2CCC(C2)C1OC(=O)N[C@H](C(=O)N1C[C@H](Oc2nc3cc(OC)ccc3nc2C=C)[C@@H](CC)[C@H]1C(=O)OC(C)(C)C)C(C)(C)C, 4.0 mM, 100.0 °C, 0.75 h) of 45.2%.

With `COc1ccc2nc3c(nc2c1)O[C@H]1CN(C(=O)[C@H](C(C)(C)C)NC(=O)O[C@@H]2C[C@H]2CCCCC3)[C@H](C(=O)N[C@]2(C(=O)NS(=O)(=O)C3(C)CC3)C[C@H]2C(F)F)[C@@H]1C` [Example 18, (1aR,5S,8S,9S,10R,22aR)-5-tert-butyl-N-[(1R,2R)-2-(difluoromethyl)-1-{[(1-methylcyclopropyl)sulfonyl]carbamoyl}cyclopropyl]-14-methoxy-9-methyl-3,6-dioxo-1,1a,3,4,5,6,9,10,18,19,20,21,22,22a-tetradecahydro-8H-7,10-methanocyclopropa[18,19][1,10,3,6]dioxadiazacyclononadecino[11,12-b]quinoxaline-8-carboxamide] the EC50 [4] was 2.3 nM, the EC50 [5] was 1.2 nM and the EC50 [6] was 24 nM.

With `CC[C@@H]1[C@@H]2CN(C(=O)[C@H](C3CCCCC3)NC(=O)O[C@@H]3C[C@H]3CCCCCc3nc4ccc(OC)cc4nc3O2)[C@@H]1C(=O)N[C@]1(C(=O)NS(=O)(=O)C2(C)CC2)C[C@H]1C(F)F` [Example 16, (1aR,5S,8S,9S,10R,22aR)-5-cyclohexyl-N-[(1R,2R)-2-(difluoromethyl)-1-{[(1-methylcyclopropyl)sulfonyl]carbamoyl}cyclopropyl]-9-ethyl-14-methoxy-3,6-dioxo-1,1a,3,4,5,6,9,10,18,19,20,21,22,22a-tetradecahydro-8H-7,10-methanocyclopropa[18,19][1,10,3,6]dioxadiazacyclononadecino[11,12-b]quinoxaline-8-carboxamide] the Ki [2] was 0.09 nM, the EC50 [4] was 9.4 nM and the EC50 [7] was 22 nM. It also gave an EC50 [5] of 5.8 nM and an EC50 [6] of 61 nM.
